# Source: patent publication US9446039B2, “Aminoheteroaryl compounds as MTH1 inhibitors” (CEMM—FORSCHUNGSZENTRUM FÜR MOLEKULARE MEDIZIN GMBH, priority 2012, dated 2016)
# Tests used:
# Type in all cases: binding
# [1] = target: SW480 colon carcinoma cells lysate proteins (Homo sapiens, UniProt Q07812); conditions: PreyGene BAX; SW480 cells
# [2] = target: T1, SW480 colon carcinoma cells lysate proteins (Homo sapiens, UniProt Q96FQ6); conditions: PreyGene S100A16; SW480 cells
# T1 sequence (Q96FQ6 1-103): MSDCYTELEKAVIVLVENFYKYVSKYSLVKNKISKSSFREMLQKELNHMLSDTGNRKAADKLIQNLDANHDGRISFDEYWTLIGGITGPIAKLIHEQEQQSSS
# [3] = target: T2, SW480 colon carcinoma cells lysate proteins (Homo sapiens, UniProt Q9BRA2); conditions: PreyGene TXNDC17
# T2 sequence (Q9BRA2 1-123): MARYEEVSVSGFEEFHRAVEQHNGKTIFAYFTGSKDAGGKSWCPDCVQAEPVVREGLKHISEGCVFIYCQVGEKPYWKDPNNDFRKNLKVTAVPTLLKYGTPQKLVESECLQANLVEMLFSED
# [4] = target: SW480 colon carcinoma cells lysate proteins (Homo sapiens, UniProt P68371); conditions: PreyGene TUBB4B; SW480 cells
# SW480 colon carcinoma cells lysate proteins (Homo sapiens, UniProt P68371), sequence (P68371 whole entry): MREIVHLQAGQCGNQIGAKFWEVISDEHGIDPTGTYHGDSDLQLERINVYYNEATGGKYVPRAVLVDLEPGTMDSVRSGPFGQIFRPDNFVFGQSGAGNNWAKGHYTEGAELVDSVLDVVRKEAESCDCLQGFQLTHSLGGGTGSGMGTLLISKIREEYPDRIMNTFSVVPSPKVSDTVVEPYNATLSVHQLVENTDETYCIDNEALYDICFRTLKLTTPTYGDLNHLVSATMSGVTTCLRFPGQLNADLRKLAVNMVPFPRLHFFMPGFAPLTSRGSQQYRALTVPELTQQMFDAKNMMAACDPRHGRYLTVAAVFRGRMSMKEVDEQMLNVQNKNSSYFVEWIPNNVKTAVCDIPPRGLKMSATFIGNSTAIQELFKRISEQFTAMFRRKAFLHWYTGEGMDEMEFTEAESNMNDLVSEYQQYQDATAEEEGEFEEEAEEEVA
# [5] = target: SW480 colon carcinoma cells lysate proteins (Homo sapiens, UniProt Q92688); conditions: PreyGene ANP32B
# SW480 colon carcinoma cells lysate proteins (Homo sapiens, UniProt Q92688), sequence (Q92688 whole entry): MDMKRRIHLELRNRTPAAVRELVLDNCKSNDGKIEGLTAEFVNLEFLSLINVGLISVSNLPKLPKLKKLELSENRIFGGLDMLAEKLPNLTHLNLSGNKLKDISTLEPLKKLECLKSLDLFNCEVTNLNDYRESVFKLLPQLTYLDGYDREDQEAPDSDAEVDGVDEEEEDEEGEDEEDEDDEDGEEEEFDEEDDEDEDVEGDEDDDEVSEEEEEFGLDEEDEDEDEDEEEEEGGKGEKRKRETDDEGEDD
# [6] = target: T3, SW480 colon carcinoma cells lysate proteins (Homo sapiens, UniProt P12429); conditions: PreyGene ANXA3
# T3 sequence (P12429 1-323): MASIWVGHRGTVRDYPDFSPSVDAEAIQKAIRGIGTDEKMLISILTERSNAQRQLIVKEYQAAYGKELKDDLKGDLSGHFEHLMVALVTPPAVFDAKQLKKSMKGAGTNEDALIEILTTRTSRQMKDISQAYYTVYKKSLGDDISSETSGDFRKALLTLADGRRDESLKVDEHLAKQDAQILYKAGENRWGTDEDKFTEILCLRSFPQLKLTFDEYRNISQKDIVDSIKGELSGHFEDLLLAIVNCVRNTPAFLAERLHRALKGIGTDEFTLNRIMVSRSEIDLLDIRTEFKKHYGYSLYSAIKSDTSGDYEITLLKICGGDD
# [7] = target: T4, SW480 colon carcinoma cells lysate proteins (Homo sapiens, UniProt P11169); conditions: PreyGene SLC2A3
# T4 sequence (P11169 1-496): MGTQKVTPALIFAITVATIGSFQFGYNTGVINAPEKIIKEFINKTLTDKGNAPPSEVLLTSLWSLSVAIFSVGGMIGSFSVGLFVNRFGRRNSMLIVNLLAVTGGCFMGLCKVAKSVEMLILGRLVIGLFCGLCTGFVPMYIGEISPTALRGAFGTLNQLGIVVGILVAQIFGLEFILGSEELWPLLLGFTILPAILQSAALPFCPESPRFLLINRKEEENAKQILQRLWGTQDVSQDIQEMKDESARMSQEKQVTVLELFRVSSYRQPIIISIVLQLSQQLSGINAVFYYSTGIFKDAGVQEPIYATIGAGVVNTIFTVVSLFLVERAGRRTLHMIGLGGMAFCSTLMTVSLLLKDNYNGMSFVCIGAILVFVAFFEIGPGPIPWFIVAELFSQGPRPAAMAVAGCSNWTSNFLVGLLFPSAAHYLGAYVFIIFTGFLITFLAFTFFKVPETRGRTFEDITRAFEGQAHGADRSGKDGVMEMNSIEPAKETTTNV
# [8] = target: SW480 colon carcinoma cells lysate proteins (Homo sapiens, UniProt Q9Y266); conditions: PreyGene NUDC; SW480 cells
# SW480 colon carcinoma cells lysate proteins (Homo sapiens, UniProt Q9Y266), sequence (Q9Y266 whole entry): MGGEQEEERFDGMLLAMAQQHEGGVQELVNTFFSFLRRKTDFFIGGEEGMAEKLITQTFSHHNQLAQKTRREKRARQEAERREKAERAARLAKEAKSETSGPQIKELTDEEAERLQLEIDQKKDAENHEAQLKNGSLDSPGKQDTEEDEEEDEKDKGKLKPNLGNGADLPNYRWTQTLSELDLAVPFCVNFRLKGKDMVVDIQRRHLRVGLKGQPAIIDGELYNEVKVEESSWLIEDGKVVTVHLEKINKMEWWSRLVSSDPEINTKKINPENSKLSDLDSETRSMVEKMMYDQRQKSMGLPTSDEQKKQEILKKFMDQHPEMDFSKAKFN
# [9] = target: SW480 colon carcinoma cells lysate proteins (Homo sapiens, UniProt P62861); conditions: PreyGene FAU
# [10] = target: T5, SW480 colon carcinoma cells lysate proteins (Homo sapiens, UniProt O00764); conditions: PreyGene PDXK
# T5 sequence (O00764 1-312): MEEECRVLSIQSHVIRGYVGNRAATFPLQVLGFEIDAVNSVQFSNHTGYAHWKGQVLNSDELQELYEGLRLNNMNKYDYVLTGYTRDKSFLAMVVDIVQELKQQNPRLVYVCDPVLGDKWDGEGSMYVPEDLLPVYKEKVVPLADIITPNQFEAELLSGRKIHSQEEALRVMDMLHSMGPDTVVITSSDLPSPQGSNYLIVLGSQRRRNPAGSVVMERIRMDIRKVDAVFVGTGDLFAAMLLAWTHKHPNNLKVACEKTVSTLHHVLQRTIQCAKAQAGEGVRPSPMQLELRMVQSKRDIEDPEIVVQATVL
# SW480 colon carcinoma cells lysate proteins (Homo sapiens, UniProt Q07812), sequence (Q07812 whole entry): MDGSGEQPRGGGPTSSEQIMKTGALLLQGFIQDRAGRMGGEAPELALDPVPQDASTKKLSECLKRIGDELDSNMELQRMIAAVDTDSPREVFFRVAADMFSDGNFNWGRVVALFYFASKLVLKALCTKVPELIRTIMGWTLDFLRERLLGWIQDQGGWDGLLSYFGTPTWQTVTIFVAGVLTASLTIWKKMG
compound,measurement,setting,value
C[C@H](Oc1cc(-c2cnn(C3CCNCC3)c2)cnc1N)c1c(Cl)ccc(F)c1Cl [(5)-crizotinib],AvgP,[1],0
same,SC.Exp. 1-1,[1],1
same,SC.Exp. 1-2,[1],1
same,SC.Exp. 2-1,[1],1
same,SC.Exp. 2-2,[1],1
same,SC.Exp. Sum,[1],4
same,AvgP,[2],0
same,SC.Exp. 1-1,[2],1
same,SC.Exp. 1-2,[2],0
same,SC.Exp. 2-1,[2],0
same,SC.Exp. 2-2,[2],0
same,SC.Exp. Sum,[2],1
same,AvgP,[3],0.1862
same,SC.Exp. 1-1,[3],2
same,SC.Exp. 1-2,[3],3
same,SC.Exp. 2-1,[3],0
same,SC.Exp. 2-2,[3],0
same,Sum (SC.Exp.),[3],5
same,AvgP,[4],0
same,SC.Exp. 1-1,[4],8
same,SC.Exp. 1-2,[4],8
same,SC.Exp. 2-1,[4],2
same,SC.Exp. 2-2,[4],4
same,SC.Exp. Sum,[4],22
same,AvgP,[5],0.5116
same,SC.Exp. 1-1,[5],0
same,SC.Exp. 1-2,[5],1
same,SC.Exp. 2-1,[5],4
same,SC.Exp. 2-2,[5],4
same,Sum (SC.Exp.),[5],9
same,AvgP,[6],0.461
same,SC.Exp. 1-1,[6],4
same,SC.Exp. 1-2,[6],4
same,SC.Exp. 2-1,[6],0
same,SC.Exp. 2-2,[6],0
same,Sum (SC.Exp.),[6],8
same,AvgP,[7],0.1834
same,SC.Exp. 1-1,[7],3
same,SC.Exp. 1-2,[7],0
same,SC.Exp. 2-1,[7],0
same,SC.Exp. 2-2,[7],0
same,Sum (SC.Exp.),[7],3
same,AvgP,[8],0
same,SC.Exp. 1-1,[8],0
same,SC.Exp. 1-2,[8],1
same,SC.Exp. 2-1,[8],0
same,SC.Exp. 2-2,[8],0
same,SC.Exp. Sum,[8],1
same,AvgP,[9],0.2109
same,SC.Exp. 1-1,[9],2
same,SC.Exp. 1-2,[9],4
same,SC.Exp. 2-1,[9],0
same,SC.Exp. 2-2,[9],2
same,Sum (SC.Exp.),[9],8
same,AvgP,[10],0.2207
same,SC.Exp. 1-1,[10],3
same,SC.Exp. 1-2,[10],0
same,SC.Exp. 2-1,[10],0
same,SC.Exp. 2-2,[10],0
same,Sum (SC.Exp.),[10],3
